“Also recorded” adds a separate entry of the source. Where two headings read alike, the source gives them in different places.

For data set [1], the target named is T1, JNK1 (Homo sapiens, UniProt P45983). In words: JNK1 kinase (intrinsic ATPase, Kinase-Glo) assay. Type of data set: biochemical. The conditions noted are these: Table 3b; read-out: Ki(app) JNK1. An outline of the steps:
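Full-length construct not stated; kinases hydrolyse ATP without peptide substrate, reaction run 30 or 60 min at 30° C, remaining ATP read by Kinase-Glo luminescence with no-kinase controls. Apparent Ki from normalized fractional activities fitted to modified Morrison tight-binding equation; orthogonal LanthaScreen binding assay gave IC50.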
On the technique in general: In Kinase-Glo more light means more ATP remaining.

Data set [2] addresses T2, JNK2 (Homo sapiens, UniProt P45984). In words: JNK2 kinase (intrinsic ATPase, Kinase-Glo) assay. Type of data set: biochemical. Conditions: Table 3b; read-out: Ki(app) JNK2.
For data set [3], the target named is T3, JNK3 (Homo sapiens, UniProt P53779). In words: JNK3 kinase (intrinsic ATPase, Kinase-Glo) assay. Type of data set: biochemical. The conditions noted are these: Table 3b; read-out: Ki(app) JNK3.
T3 sequence (P53779 whole entry): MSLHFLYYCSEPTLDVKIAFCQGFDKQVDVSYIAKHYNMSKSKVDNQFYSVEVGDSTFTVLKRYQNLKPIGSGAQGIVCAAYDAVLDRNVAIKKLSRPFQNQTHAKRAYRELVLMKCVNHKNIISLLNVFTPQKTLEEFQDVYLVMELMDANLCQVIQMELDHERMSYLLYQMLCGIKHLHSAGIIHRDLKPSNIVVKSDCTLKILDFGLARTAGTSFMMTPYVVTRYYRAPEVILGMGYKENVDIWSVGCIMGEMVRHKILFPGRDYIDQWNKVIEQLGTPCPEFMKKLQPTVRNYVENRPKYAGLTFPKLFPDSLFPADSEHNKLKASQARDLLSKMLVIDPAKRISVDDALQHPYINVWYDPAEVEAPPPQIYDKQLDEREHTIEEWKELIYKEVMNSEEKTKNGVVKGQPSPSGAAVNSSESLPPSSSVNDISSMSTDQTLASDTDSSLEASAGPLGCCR
Another data set addresses T4, JNK1 (MAPK8) (Homo sapiens, UniProt P45983).
T4 construct: purchased Eurofins (KdSelect service)
In words: Eurofins KdSelect, JNK1 (MAPK8). The conditions noted are these: Table 2; IC50 nM; read-out: JNK1 (MAPK8), based on Kd select results. Type of data set: binding.

Another data set addresses T5, JNK2 (MAPK9) (Homo sapiens, UniProt P45984).
T5 construct: purchased Eurofins (KdSelect service)
Kind of data set: Eurofins KdSelect, JNK2 (MAPK9). Type of data set: binding. Conditions: Table 2; IC50 nM; read-out: JNK2 (MAPK9), based on Kd select results.

For the next data set, the target named is T6, JNK3 (MAPK10) (Homo sapiens, UniProt P53779).
T6 construct: purchased Eurofins (KdSelect service)
T6 sequence (P53779 whole entry): as above
Kind of data set: Eurofins KdSelect, JNK3 (MAPK10). The class given is binding. Conditions: Table 2; IC50 nM; read-out: JNK3 (MAPK10), based on Kd select results.

Another data set has as its target Other MAPK. Kind of data set: Eurofins KdSelect, other MAPK. Type of data set: binding. Conditions: Table 2; IC50 nM; read-out: Other MAPK, based on Kd select results. The source says: The next step was to confirm that the compounds that bound to JNK1, JNK2 or JNK3 in a competitive manner, relative to bentamapimod, were inhibitors of the ATP-dependent kinase activity in assays. In many cases, the results have been replicated at ThermoFisher using their SelectScreen technology platform. Based on knowledge about JNK inhibitors, and the results of DEC-Tec selections, a target compound profile was developed (Table 2).
The efficacy and selectivity of BEND and TANZ were used to define a realistic preliminary target compound profile (Table 2) for the next generation of JNK1-3 inhibitors for the treatment of endometriosis.

For data set [4], the target named is T1, JNK1. Kind of data set: Promega NanoBRET intracellular target engagement (tracer K10 displacement), JNK1. The class given is cell-based. (Bioluminescence resonance energy transfer reports proximity on the nanometre scale.)
In the next data set the test system is 480 kinases. In words: Eurofins KINOMEscan selectivity profile. The conditions noted are these: Bentamapimod and Tanzisertib at 1 μM; listed as BEND. The class given is binding.
The target of another data set is T7, MEK4 (Homo sapiens, UniProt P45985).
T7 construct: purchased ThermoFisher (SelectScreen)
T7 sequence (P45985 1-399): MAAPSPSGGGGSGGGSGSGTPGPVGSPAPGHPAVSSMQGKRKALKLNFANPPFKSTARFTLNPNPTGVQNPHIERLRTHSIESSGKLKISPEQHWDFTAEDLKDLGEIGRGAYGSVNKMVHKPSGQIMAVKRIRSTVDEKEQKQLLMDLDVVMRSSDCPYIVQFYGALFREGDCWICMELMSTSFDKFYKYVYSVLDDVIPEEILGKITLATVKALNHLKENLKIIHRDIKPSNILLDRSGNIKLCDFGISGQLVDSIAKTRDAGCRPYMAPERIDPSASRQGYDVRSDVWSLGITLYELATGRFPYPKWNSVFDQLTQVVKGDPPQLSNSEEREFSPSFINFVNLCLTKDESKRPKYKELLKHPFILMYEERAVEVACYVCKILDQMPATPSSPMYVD
Kind of data set: KINOMEscan, MEK4. Type of data set: binding.

Data set [5] relates to 12Z endometriotic epithelial cells. In words: IL-1β-stimulated pro-inflammatory gene expression (qPCR) in 12Z cells. Type of data set: cell-based, human. The conditions noted are these: relative to bentamapimod. The text has this: These studies indicate that NanoBRET assays are an innovative technical platform to measure target engagement of CDD JNK inhibitors with the target JNK1, JNK2 or JNK3. As further evidence that JNK inhibitors address disease-relevant endpoints, biological responses of JNK inhibitors are provided herein, as measured in target tissue cellular models. 12Z immortalized endometriotic epithelial cells and patient-derived endometriotic stromal cells have been cultured with reference compound bentamapimod, CDD-2628, and CDD-2728. To exemplify the effects of CDD-2628 and CDD-2728 in the endometrial cell cultures, gene expression was measured using qPCR (expressed as fold-change relative to GAPDH, a housekeeping gene that is not affected by culture treatment effects) that reflect synthesis of inflammatory lipids (PTGS2), transformation of cells to a more migration and invasive potential (MMP-3) and chemoattractant cytokines to recruit pro-inflammatory immune cells (IL-6, IL-8).
In the culture systems employed in FIGS. 12A-12J, FIGS. 13A-13B, FIGS. 14A-14H, FIGS. 15A-15H, and FIGS. 16A-16F, the treatment of cells with IL-1β is used to mimic the peritoneal environment where IL-1β is most frequently measured at higher concentrations in patients with endometriosis (0.1 ng/mL-1 ng/mL) than in unaffected women (<0.01 ng/mL). The use of IL-1β to mimic the pro-inflammatory environment is a common method in cellular assays for endometriosis research. Although the concentrations of IL-1β in these cell cultures are higher than measured in peritoneal fluid, there are multiple other pro-inflammatory cytokines in peritoneal fluid that contribute to the pro-inflammatory environment.
Specifically, 12Z cells were plated at a density of 1×10^5 cells/well in a 12-well tissue culture plate, serum-starved overnight (17-18 h), pre-treated with vehicle (DMSO) or JNK inhibitor for 30 minutes, then stimulated with 10 ng/ml IL-1β in the presence or absence of the JNK inhibitors for 6 hours. After the 6-hour treatment, mRNA was extracted from the cells using the Qiagen RNEasy mini isolation kit and […] of mRNA was reverse transcribed into cDNA using the qScript cDNA Supermix (Quanta Biosciences). cDNA was amplified using SYBR Green Master Mix (Applied Biosystems) with quantitative Real Time PCR (BioRad CFX) using pre-designed and validated primers specific for genes encoding IL6, IL8, PTGS2/COX2, and MMP3 (BioRad). Relative quantification of these specific genes was calculated by the ΔΔCt method, normalizing their abundance relative to the internal housekeeping gene, GAPDH, followed by quantification relative to the vehicle-treated cells. Statistical analyses and visualizations were performed using a One Way ANOVA with a Tukey's multiple comparison post-hoc test on GraphPad Prism version 9.
On the technique in general: Quantitative PCR measures a nucleic acid by following its amplification.

The conditions of data set [6]: cited from earlier work; for clinical safety: Phase 1 volunteers / IPF.
The target in data set [7] is T8, LATS1 (Homo sapiens, UniProt O95835). Kind of data set: KINOMEscan, LATS1. Type of data set: binding. The conditions noted are these: 1 μM.
T8 sequence (O95835 whole entry): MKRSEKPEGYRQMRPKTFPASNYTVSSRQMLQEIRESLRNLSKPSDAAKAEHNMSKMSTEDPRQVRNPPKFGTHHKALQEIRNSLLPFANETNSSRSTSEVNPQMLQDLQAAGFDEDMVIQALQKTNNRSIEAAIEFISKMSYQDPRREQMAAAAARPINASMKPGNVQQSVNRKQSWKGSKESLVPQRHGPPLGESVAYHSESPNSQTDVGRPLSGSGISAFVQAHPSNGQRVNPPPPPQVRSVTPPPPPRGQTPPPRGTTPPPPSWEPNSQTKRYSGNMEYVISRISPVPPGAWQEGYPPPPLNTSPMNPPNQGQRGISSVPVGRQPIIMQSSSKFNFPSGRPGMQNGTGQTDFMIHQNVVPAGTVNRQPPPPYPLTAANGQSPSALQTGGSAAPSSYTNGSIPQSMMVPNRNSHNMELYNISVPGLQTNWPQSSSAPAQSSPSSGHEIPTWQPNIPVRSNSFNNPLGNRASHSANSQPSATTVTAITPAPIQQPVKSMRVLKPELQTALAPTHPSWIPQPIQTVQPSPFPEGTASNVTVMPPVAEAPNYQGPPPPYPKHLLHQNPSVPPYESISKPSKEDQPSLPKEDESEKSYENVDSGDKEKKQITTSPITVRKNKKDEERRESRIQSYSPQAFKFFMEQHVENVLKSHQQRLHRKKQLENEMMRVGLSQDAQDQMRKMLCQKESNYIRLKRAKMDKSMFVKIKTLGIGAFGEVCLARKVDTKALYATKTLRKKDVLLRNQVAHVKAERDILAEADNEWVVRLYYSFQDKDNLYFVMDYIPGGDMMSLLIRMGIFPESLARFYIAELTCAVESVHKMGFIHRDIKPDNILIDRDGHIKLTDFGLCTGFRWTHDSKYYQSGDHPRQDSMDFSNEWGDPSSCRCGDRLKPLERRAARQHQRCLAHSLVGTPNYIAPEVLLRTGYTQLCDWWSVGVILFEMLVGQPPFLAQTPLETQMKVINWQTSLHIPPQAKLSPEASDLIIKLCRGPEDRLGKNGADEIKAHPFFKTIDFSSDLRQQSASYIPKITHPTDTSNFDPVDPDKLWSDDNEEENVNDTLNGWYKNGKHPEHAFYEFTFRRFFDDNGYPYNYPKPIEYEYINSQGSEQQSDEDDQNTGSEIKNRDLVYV
In data set [8] the target is T8, LATS1. In words: ThermoFisher Z'Lyte assay, LATS1. The class given is biochemical. The text has this: Inhibition of LATS1 was not confirmed in a subsequent ThermoFisher Z'Lyte assay.
In data set [9] the test system is immortalized human endometriotic epithelial cells (iHEEC). Kind of data set: Phosphorylation of JNK and Jun in iHEEC. The class given is cell-based. The text has this:
FIG. 26A depicts the effects of CDD-2728 and CDD-3013 on phosphorylation of the JNK enzyme itself (i.e., representing MEK4 inhibition) and phosphorylation of pSer63 and pSer73 on the transcription factor Jun in immortalized human endometriotic epithelial cells (iHEEC). The HEEC cells are a well characterized cell line that are relevant for the evaluation of inflammatory endpoints and measures of epithelial-to-mesenchymal transitions (EMT). […] This is consistent with the potency relationships of CDD-2728 relative to bentamapimod observed in cytokine gene expression described above in iHEEC cells and primary human stromal endometriotic cells. […] SP600125 has been frequently described as a poorly-selective JNK-I but in this context provides additional confirmation of inhibition of the JNK target kinase for CDD-2728. […] This adds further support to the critical role of JNK-1 to the therapeutic effect of the JNK inhibitors of the disclosure.

In data set [10] the target is T2, JNK2. Kind of data set: Promega NanoBRET intracellular target engagement (tracer K10 displacement), JNK2. Type of data set: cell-based.
Data set [11] has as its target T3, JNK3. Kind of data set: Promega NanoBRET intracellular target engagement (tracer K10 displacement), JNK3. Type of data set: cell-based.
In data set [12] the target is T1, JNK1. Kind of data set: JNK1 biochemical assay (piperazine series). Conditions: in words. The text has this: FIG. 21B depicts concentration-dependent inhibition of JNK1 with CDD-1722 and CDD-1723. Components of CDD-1722 and CD-1723 represent alternative building blocks which may be incorporated during optimization of pharmaceutical properties of JNK-I.

T1 sequence (P45983 whole entry): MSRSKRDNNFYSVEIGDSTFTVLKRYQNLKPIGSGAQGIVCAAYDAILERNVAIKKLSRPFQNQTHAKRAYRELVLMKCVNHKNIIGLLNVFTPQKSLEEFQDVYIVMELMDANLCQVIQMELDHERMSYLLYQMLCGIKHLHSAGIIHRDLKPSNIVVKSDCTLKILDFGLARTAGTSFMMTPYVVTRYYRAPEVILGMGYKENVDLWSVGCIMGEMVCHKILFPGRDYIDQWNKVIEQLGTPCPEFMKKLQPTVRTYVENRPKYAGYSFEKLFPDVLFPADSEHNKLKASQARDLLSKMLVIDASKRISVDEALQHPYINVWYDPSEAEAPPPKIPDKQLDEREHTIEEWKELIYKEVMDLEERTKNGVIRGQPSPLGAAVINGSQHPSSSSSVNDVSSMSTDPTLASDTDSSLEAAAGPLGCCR
T2 sequence (P45984 whole entry): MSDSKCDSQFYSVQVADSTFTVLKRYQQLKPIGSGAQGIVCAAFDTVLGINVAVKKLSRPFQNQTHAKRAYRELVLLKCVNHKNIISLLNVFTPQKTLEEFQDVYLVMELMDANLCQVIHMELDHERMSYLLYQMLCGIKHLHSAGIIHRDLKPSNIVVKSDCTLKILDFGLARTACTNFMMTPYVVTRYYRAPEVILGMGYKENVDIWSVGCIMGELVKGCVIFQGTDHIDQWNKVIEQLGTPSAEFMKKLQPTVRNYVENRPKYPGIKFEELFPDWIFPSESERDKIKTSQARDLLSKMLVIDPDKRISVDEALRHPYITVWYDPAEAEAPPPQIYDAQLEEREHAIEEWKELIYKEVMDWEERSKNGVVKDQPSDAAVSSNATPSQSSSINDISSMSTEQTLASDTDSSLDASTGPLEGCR
T5 sequence (P45984 whole entry): as above
T4 sequence (P45983 whole entry): as the sequence (P45983 whole entry) above

Turning to `N#CC(c1ccnc(OCc2ccc(CN3CCOCC3)cc2)n1)c1nc2ccccc2s1` (stereo not shown) [CDD-939, bentamapimod], the Ki at JNK1 [1] worked out at 0.22 µM; at JNK2 [2], 0.64 µM; on JNK3 [3] it was 0.039 µM. Also, the Kd on JNK1 (MAPK8) was 270 nM; on JNK2 (MAPK9), 170 nM; at JNK3 (MAPK10) it was 130 nM; at Other MAPK, greater than 1000 nM. Also, the “interference with NanoBRET readout” value at JNK1 [4] (cyano group) was “interferes with the assay readout”. For the same molecule, the “KINOMEscan selectivity / inhibition” value in the data set with 480 kinases is reported as “JNK1-3 (CMGC family), were inhibited; also recorded: highly selective”. Also, the “MEK4 inhibition in KINOMEscan” value at MEK4 is on record as “does not inhibit MEK4”. Also, the PTGS2 expression entry in data set [5] is “concentration-dependent decreases”. Besides, the IL-6 expression result was “concentration-dependent decreases” in data set [5] (listed as Bentamapimod) and “equally effective” in [5] (listed as bentamapimod). Moreover, the clinical safety entry in data set [6] is listed as “deemed safe”.

As for `O[C@H]1CC[C@H](Nc2ncc3nc(Nc4c(F)cc(F)cc4F)n([C@H]4CCOC4)c3n2)CC1` [CDD-985, tanzisertib], the equilibrium dissociation constant (Kd) on Other MAPK was greater than 1000 nM. Moreover, at LATS1 [7], the “LATS1 inhibition in KINOMEscan” value is reported as “weakly inhibited”. The “LATS1 inhibition in Z'Lyte assay” value on LATS1 [8] is on record as “not confirmed”. Moreover, the “phosphorylation of Jun at pSer63 and pSer73” value in [9] was “lack of efficacy”. In [6] (IPF), the “effect in preclinical IPF models and human IPF patients” value is “reduced inflammation, EMT, and fibrosis”. In addition, the clinical safety result in data set [6] (listed as TANZ) is “adverse liver effect”; in [6] (listed as Tanzisertib), “deemed safe”.

Regarding `CNC(=O)CN1[C@H](CCNC(=O)OCc2ccccc2)CN(Cc2cccc3ccnn23)C[C@H]1CC(=O)NCCCN(C)c1ccc(F)cc1` [CDD-1723, benzyl (2-((2R,6R)-6-(2-((3-((4-fluorophenyl)(methyl)amino)propyl)amino)-2-oxoethyl)-1-(2-(methylamino)-2-oxoethyl)-4-(pyrazolo[1,5-a]pyridin-7-ylmethyl)piperazin-2-yl)ethyl)carbamate], the IC50 was determined as 24 µM at JNK1 [4], 32 µM on JNK2 [10] and 38 µM at JNK3 [11]. Moreover, the JNK1 inhibition result at JNK1 [12] is “good inhibition of JNK1”.

One may read the Kd as the concentration at which binding is half-saturated. For orientation: IC50 means the concentration needed to halve the response being measured. The low end stands for greater potency in that assay, the high end for weaker potency in that assay.

The values are drawn from US20260294922A1, “Inhibitors of JUN N-Terminal Kinases (JNK1, JNK2, and/or JNK3) and Mitogen-Activated Protein Kinases (MAPK8, MAPK9, and/or MAPK10) and Methods of Using Same” (Baylor College of Medicine, priority 2023, published 2026).
